A short description of data set [1]: Caco2 assay (permeability, Papp A-B). It is filed as in vitro ADME. The conditions noted are these: human, Caco-2, absorptive direction (A-B), 50 μM test compound, 4% BSA in receiver. A digest of the protocol: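 Absorptive (A-B) Papp: 50 μM test compound in HBSS added to apical side of 22-25-day Caco-2 monolayers (TEER 300 Ω·cm^2), receiver buffer containing 4% BSA. After 120 min at 37 °C, 5% CO2, both sides analysed by LCMS; Papp calculated from flux rate normalized to area and donor amount.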

A further data set concerns the target KRAS G12D (Homo sapiens, UniProt P01116, G12D). As to the kind of experiment: GDP-GTP exchange assay (KRAS G12D).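 Also: one dagger IC50 up to 100 nM and two daggers above 100 nM up to 1 μM.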 Format: biochemical. The conditions noted are these: bodipy-GDP/GppNHp exchange with SOS1; 4 h pre-incubation, 2 h reaction. Put shortly:
(§1)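 IC50 came from a four-parameter fit of fluorescence loss (485/520 nm) as SOS1 (150 nM) swapped bodipy-GDP for GppNHp (500 μM) on 2.5 nM KRAS, final concentrations. Compounds were pre-incubated 4 h at r.t. (pH 7.5 Hepes, 10 mM MgCl2); exchange ran 2 h (G12D) or 3 h (G12V).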

A further data set concerns the target KRAS G12V (Homo sapiens, UniProt P01116, G12V). As to the kind of experiment: GDP-GTP exchange assay (KRAS G12V).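 Also: one dagger IC50 up to 100 nM and two daggers above 100 nM up to 1 μM.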 It is filed as biochemical. The conditions noted are these: bodipy-GDP/GppNHp exchange with SOS1; 3 h incubation after GppNHp-SOS1. A digest of the protocol:
as §1

Some results are limits rather than exact numbers.

KRAS G12D, sequence (P01116 1-188 isoform P01116-2 G12D): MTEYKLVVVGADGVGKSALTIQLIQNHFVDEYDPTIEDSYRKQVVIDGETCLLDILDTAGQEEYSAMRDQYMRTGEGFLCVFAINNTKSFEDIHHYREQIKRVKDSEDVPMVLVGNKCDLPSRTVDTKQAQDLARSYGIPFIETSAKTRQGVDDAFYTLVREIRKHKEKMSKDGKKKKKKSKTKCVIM
KRAS G12V, sequence (P01116 1-188 isoform P01116-2 G12V): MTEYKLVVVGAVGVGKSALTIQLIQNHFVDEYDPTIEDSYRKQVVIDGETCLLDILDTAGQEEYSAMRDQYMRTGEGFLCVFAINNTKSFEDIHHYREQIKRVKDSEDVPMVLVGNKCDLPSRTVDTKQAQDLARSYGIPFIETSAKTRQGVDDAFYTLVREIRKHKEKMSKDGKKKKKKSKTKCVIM

Turning to `COc1ccnc(N2C[C@@H]3C[C@H](C2)N(C(=O)C2CC2)[C@H]3c2cc3c(C)nc4c(F)c(-c5cccc(Cl)c5Cl)c(CCC#N)cc4c3n2[C@H]2[C@H]3CN[C@@H]2C3)n1` (atropisomer, axis not shown; (Ra)) [Example 42, 3-((Ra)-1-((1R,4R,5S)-2-azabicyclo[2.1.1]hexan-5-yl)-2-((1S,5R,7R)-6-(cyclopropanecarbonyl)-3-(4-methoxypyrimidin-2-yl)-3,6-diazabicyclo[3.2.1]octan-7-yl)-7-(2,3-dichlorophenyl)-6-fluoro-4-methyl-1H-pyrrolo[3,2-c]quinolin-8-yl)propanenitrile], in data set [1], the Papp A→B at 120 min, 50 μM is ≤ 0.5 ×10⁻⁶ cm/s. On KRAS G12D, the “G12D_exchange (KRAS_G12D exchange assay IC50)” value (from here on “G12D_exchange”) is recorded as “†”. Also, the “G12V_exchange (KRAS_G12V exchange assay IC50)” value (“G12V_exchange” below) on KRAS G12V is on record as “†”.

Consider `Cc1nc2c(F)c(-c3cccc(Cl)c3Cl)c(CCC#N)cc2c2c1cc([C@H]1[C@H]3C[C@H](CN(c4nccc(C(F)(F)F)n4)C3)N1C(=O)C1CC1)n2[C@H]1[C@H]2CN[C@@H]1C2` (atropisomer, axis not shown; (Ra)) [Example 43, 3-((Ra)-1-((1R,4R,5S)-2-azabicyclo[2.1.1]hexan-5-yl)-2-((1S,5R,7R)-6-(cyclopropanecarbonyl)-3-(4-(trifluoromethyl)pyrimidin-2-yl)-3,6-diazabicyclo[3.2.1]octan-7-yl)-7-(2,3-dichlorophenyl)-6-fluoro-4-methyl-1H-pyrrolo[3,2-c]quinolin-8-yl)propanenitrile], for which, in data set [1], the Papp A→B at 120 min, 50 μM was ≤ 0.5 ×10⁻⁶ cm/s. Also, at KRAS G12D, the “G12D_exchange” value is “†”. Further, the “G12V_exchange” value at KRAS G12V is “†”.

Consider `Cc1nc2c(F)c(-c3cccc(Cl)c3Cl)c(CCC#N)cc2c2c1cc([C@H]1[C@H]3C[C@H](CN(c4cnc(C(F)(F)F)cn4)C3)N1C(=O)C1CC1)n2[C@H]1[C@H]2CN[C@@H]1C2` (atropisomer, axis not shown; (Ra)) [Example 44, 3-((Ra)-1-((1R,4R,5S)-2-azabicyclo[2.1.1]hexan-5-yl)-2-((1S,5R,7R)-6-(cyclopropanecarbonyl)-3-(5-(trifluoromethyl)pyrazin-2-yl)-3,6-diazabicyclo[3.2.1]octan-7-yl)-7-(2,3-dichlorophenyl)-6-fluoro-4-methyl-1H-pyrrolo[3,2-c]quinolin-8-yl)propanenitrile], for which the Papp A→B at 120 min, 50 μM in data set [1] was ≤ 0.5 ×10⁻⁶ cm/s. Besides, the “G12D_exchange” value on KRAS G12D was “†”. The “G12V_exchange” value at KRAS G12V is “†”.

For the compound `Cc1nc2c(F)c(-c3cccc(Cl)c3Cl)c(CCC#N)cc2c2c1cc([C@H]1[C@H]3C[C@H](CN(c4ncc(OC(F)F)cn4)C3)N1C(=O)C1CC1)n2[C@H]1[C@H]2CN[C@@H]1C2` (atropisomer, axis not shown; (Ra)) [Example 45, 3-((Ra)-1-((1R,4R,5S)-2-azabicyclo[2.1.1]hexan-5-yl)-2-((1S,5R,7R)-6-(cyclopropanecarbonyl)-3-(5-(difluoromethoxy)pyrimidin-2-yl)-3,6-diazabicyclo[3.2.1]octan-7-yl)-7-(2,3-dichlorophenyl)-6-fluoro-4-methyl-1H-pyrrolo[3,2-c]quinolin-8-yl)propanenitrile], in data set [1], the Papp A→B at 120 min, 50 μM was ≤ 0.5 ×10⁻⁶ cm/s. The “G12D_exchange” value on KRAS G12D is listed as “†”. Moreover, the “G12V_exchange” value on KRAS G12V is listed as “†”.

Consider `Cc1nc2c(F)c(-c3cccc(Cl)c3Cl)c(CCC#N)cc2c2c1cc([C@H]1[C@H]3C[C@H](CN(c4ncccc4F)C3)N1C(=O)C1CC1)n2[C@H]1[C@H]2CN[C@@H]1C2` (atropisomer, axis not shown; (Ra)) [Example 46, 3-((Ra)-1-((1R,4R,5S)-2-azabicyclo[2.1.1]hexan-5-yl)-2-((1S,5R,7R)-6-(cyclopropanecarbonyl)-3-(3-fluoropyridin-2-yl)-3,6-diazabicyclo[3.2.1]octan-7-yl)-7-(2,3-dichlorophenyl)-6-fluoro-4-methyl-1H-pyrrolo[3,2-c]quinolin-8-yl)propanenitrile], for which the Papp A→B at 120 min, 50 μM in data set [1] is ≤ 0.5 ×10⁻⁶ cm/s. Besides, the “G12D_exchange” value at KRAS G12D is listed as “†”. Moreover, at KRAS G12V, the “G12V_exchange” value is given as “†”.

For `Cc1nc2c(F)c(-c3cccc(Cl)c3Cl)c(CCC#N)cc2c2c1cc([C@H]1[C@H]3C[C@H](CN(c4ncccc4C#N)C3)N1C(=O)C1CC1)n2[C@H]1[C@H]2CN[C@@H]1C2` (atropisomer, axis not shown; (Ra)) [Example 47, 2-((1S,5R,7R)-7-((Ra)-1-((1R,4R,5S)-2-azabicyclo[2.1.1]hexan-5-yl)-8-(2-cyanoethyl)-7-(2,3-dichlorophenyl)-6-fluoro-4-methyl-1H-pyrrolo[3,2-c]quinolin-2-yl)-6-(cyclopropanecarbonyl)-3,6-diazabicyclo[3.2.1]octan-3-yl)nicotinonitrile], in data set [1], the Papp A→B at 120 min, 50 μM is ≤ 0.5 ×10⁻⁶ cm/s. For the same compound, at KRAS G12D, the “G12D_exchange” value is “††”. On KRAS G12V, the “G12V_exchange” value is listed as “†”.

For `Cc1cccnc1N1C[C@@H]2C[C@H](C1)N(C(=O)C1CC1)[C@H]2c1cc2c(C)nc3c(F)c(-c4cccc(Cl)c4Cl)c(CCC#N)cc3c2n1[C@H]1[C@H]2CN[C@@H]1C2` (atropisomer, axis not shown; (Ra)) [Example 48, 3-((Ra)-1-((1R,4R,5S)-2-azabicyclo[2.1.1]hexan-5-yl)-2-((1S,5R,7R)-6-(cyclopropanecarbonyl)-3-(3-methylpyridin-2-yl)-3,6-diazabicyclo[3.2.1]octan-7-yl)-7-(2,3-dichlorophenyl)-6-fluoro-4-methyl-1H-pyrrolo[3,2-c]quinolin-8-yl)propanenitrile], the Papp A→B at 120 min, 50 μM in data set [1] lay in the range of 0.5 to 1 ×10⁻⁶ cm/s. The “G12D_exchange” value at KRAS G12D is “†”. For the same compound, the “G12V_exchange” value on KRAS G12V was “†”.

As for `COc1cccnc1N1C[C@@H]2C[C@H](C1)N(C(=O)C1CC1)[C@H]2c1cc2c(C)nc3c(F)c(-c4cccc(Cl)c4Cl)c(CCC#N)cc3c2n1[C@H]1[C@H]2CN[C@@H]1C2` (atropisomer, axis not shown; (Ra)) [Example 49, 3-((Ra)-1-((1R,4R,5S)-2-azabicyclo[2.1.1]hexan-5-yl)-2-((1S,5R,7R)-6-(cyclopropanecarbonyl)-3-(3-methoxypyridin-2-yl)-3,6-diazabicyclo[3.2.1]octan-7-yl)-7-(2,3-dichlorophenyl)-6-fluoro-4-methyl-1H-pyrrolo[3,2-c]quinolin-8-yl)propanenitrile], in data set [1], the Papp A→B at 120 min, 50 μM is ≤ 0.5 ×10⁻⁶ cm/s. Moreover, the “G12D_exchange” value on KRAS G12D is “†”. Besides, the “G12V_exchange” value at KRAS G12V is “†”.

As to `Cc1nc2c(F)c(-c3cccc(Cl)c3Cl)c(CCC#N)cc2c2c1cc([C@H]1[C@H]3C[C@H](CN(c4nccc(C(F)(F)F)c4F)C3)N1C(=O)C1CC1)n2[C@H]1[C@H]2CN[C@@H]1C2` (atropisomer, axis not shown; (Ra)) [Example 50, 3-((Ra)-1-((1R,4R,5S)-2-azabicyclo[2.1.1]hexan-5-yl)-2-((1S,5R,7R)-6-(cyclopropanecarbonyl)-3-(3-fluoro-4-(trifluoromethyl)pyridin-2-yl)-3,6-diazabicyclo[3.2.1]octan-7-yl)-7-(2,3-dichlorophenyl)-6-fluoro-4-methyl-1H-pyrrolo[3,2-c]quinolin-8-yl)propanenitrile], the Papp A→B at 120 min, 50 μM in data set [1] is ≤ 0.5 ×10⁻⁶ cm/s. At KRAS G12D, the “G12D_exchange” value was “††”. In addition, the “G12V_exchange” value at KRAS G12V is listed as “†”.

For the origin of these results see US20250195536A1, “BICYCLOOCTANE KRAS INHIBITORS” (Incyte Corporation, priority 2023, published 2025).
